In US20250126968A1, “Light-Emitting Device” (Semiconductor Energy Laboratory Co., Ltd., priority 2023, published 2025):

Test: Solubility test of PrdP2Phen by LC-MS analysis
Assay type: physicochemical
Settings: 1 mg in 1 mL of water, ultrasonic waves 5 minutes, membrane-filtered, filtrate analysed by LC-MS; one atmosphere, room temperature
Procedure: Next, a solubility test of PrdP2Phen was performed. Note that the solubility test was conducted at a pressure of one atmosphere at room temperature (RT).
In the LC-MS analysis, liquid chromatography (LC) separation was carried out with ACQUITY UPLC (Waters Corporation), and MS analysis (mass spectrometry) was carried out with Xevo G2 Tof MS (Waters Corporation). Acquity UPLC BEH C8 (2.1×100 mm, 1.7 μm) was used as a column for the LC separation. Acetonitrile was used for Mobile Phase A and a 0.1% aqueous solution of formic acid was used for Mobile Phase B. The injection amount of the sample was 5.0 μL. Note that in the analysis, the wavelength of a photodiode array detector was set to 263 nm±1 nm.
In a 5-mL sample bottle, 1 mg of PrdP2Phen was put and 1 mL of water was added thereto. This mixture was irradiated with ultrasonic waves for 5 minutes. This mixture was filtered through a membrane filter to remove the solid, and the resulting filtrate was diluted by five times with acetonitrile. The obtained solution was subjected to LC-MS analysis.

c1cc(-c2ccc(N3CCCC3)cc2)c2ccc3c(-c4ccc(N5CCCC5)cc4)ccnc3c2n1 [PrdP2Phen, 4,7-bis[4-(1-pyrrolidinyl)phenyl]-1,10-phenanthroline]
solubility in water: extremely low solubility in water
